Positions count from the first letter of the chain named. Where two headings read alike, the source gives them in different places.
Experiments:
[1] = molecular target: T1, ADIFAB (Rattus norvegicus, UniProt P02693); assay: Specificity of ADIFAB: effect of potential competitor molecules on ADIFAB fluorescence and on oleic acid binding; conditions: up to maximum concentrations: lysolecithin 100mM, sphingosine 100mM, bilirubin 50mM, leukotriene C4 32mM, 5-HETE 10mM, prostaglandin D2 5mM; from ethanol 0.1% by volume
T1 construct: acrylodan covalently attached at Lys27 (chemical label, no substitution)
T1 sequence (P02693 1-132): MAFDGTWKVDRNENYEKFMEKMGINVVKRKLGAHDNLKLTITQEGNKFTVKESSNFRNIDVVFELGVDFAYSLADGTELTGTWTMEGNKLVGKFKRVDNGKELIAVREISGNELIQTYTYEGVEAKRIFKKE
Experimental: ADIFAB is highly specific for long chain FA. […] The interaction between ADIFAB and a variety of molecules that are either formed in association with FA or coexist with FA in plasma and might therefore compete with FA for binding to ADI FAB were examined. The following molecules were investigated up to the maximum concentrations indicated in parenthesis; lysolecithin (100mM), sphingosine (1 00mM), bilirubin (50mM), leukotriene C4 (32mM), (5S)-5- Hydroxy-6,8, 11,14-eicasatetaenoic acid (5-HETE) (10mM), and prostaglandin D2 (5mM). […] (Since these molecules are water insoluble they were added to ADIFAB from ethanol, at 0.1% by volume, which itself causes an Ro increase by about 12% but has no effect on the Kd for oleate binding. )

[2] = molecular target: ADIFAB (Acrylodan derivatized native rat I-FABP, Lys27) (Rattus norvegicus, UniProt P02693); assay: biochemical; type: binding; conditions: for Kd relative to oleate (fold greater than oleate): normalized to oleate
Experimental: In most of the studies FFA was added to ADIFAB, in a buffer (A) consisting of 10 Mm HEPES, 150 Mm NaCI, 5 mM KCI, and 1 mM NaHPO4 at pH 7.4, as the sodium salt of the fatty acid. […] FA bind to most surfaces and values of the total FA concentration ([FAT]) were corrected for FA binding to cuvette and container walls. This binding was determined using trace amounts of […] labeled FA and, separately, ADIFAB florescence to determine the degree of FA loss upon transfer from one container to another. […] To minimize FA binding to surfaces, the monomer concentrations of stock solutions of the Na salts were maintained at pH >9.0 in water, and were warmed to >37° C. just prior to use. The polyunsaturated forms of the FA are subject to oxidation and it was observed that dissociation constants for binding to ADIFAB (Kd) were considerably greater for the oxidized FA. Care was taken to reduce the exposure of the FA salts to oxygen (all handling was carried out under Argon) and to store them at -20° C.
The concentrations of FA in the aqueous phase (FFA) and FA bound to ADIFAB ([FAb ]) were determined from the ratio of fluorescence emission intensities at 432 and 505 nm (R). The values FFA and [FAb ]were related to the ratio of intensities essentially by the method of Grynkiewicz et. al. (Grynkiewicz, G., Poenie, M., & Tsien, R. Y. (1985) J. Biol. Chem. 260, 3440-3450), according to which:
[FAb ]=[ADIFABtotal ]Q(fr)/(1-fr+FRQ) FR
are the ADIFAB intensities with zero and saturating concentrations of FFA, Ro is the intensity ratio in the absence of FFA and Rmax is the value when ADIFAB is saturated.
Because of the limiting solubility of long chain FA in aqueous solution Rmax and Q cannot. in general, be determined directly. To determine Rmax and Q, ADIFAB was titrated with lauric acid (12:0) whose high CMC allowed maximum R values (~10-11) to be measured that were considerably greater than with longer chain FA. From this titration a linear correlation was found between Q and R. Using Q, R pairs predicted by this relationship, a two parameter (Kd and Rmax) least squares analysis of each FA was done using the equation for equilibrium binding;
1/[FAb ]=(Kd/[ADIFAB])/FFA+1/[ADIFAB] (3)
Optimal Q and Rmax values obtained in this analysis were in the range 17-22 and 10 and 13, respectively, with average values of 19.5 and 11.5. Final Kd values for each FA were then determined by least squares analysis of equation (3) with Q and Rmax fixed at 19.5 and 11.5, respectively.
Fluorescence measurements to monitor Acrylodan fluorescence in various solvents, to monitor adduct formation, and to obtain complete spectra were carried out using an SLM 8000C fluorometer. Measurements of the 505/432 intensity ratios (R values) used to monitor the FFA titrations of ADIFAB were done with either the SLM 8000C or a Perkin-Elmer MPF-2A fluorometer.
ADIFAB dose response to FFA and FFA aggregate formation was measured. The ratio of fluorescent intensities at emission wavelengths of 505/432 nm were measured as a function of added Na salts of several FFA. Resulting data are depicted graphically in FIGS. 6A, 6B and 6C. Conditions were similar to those used in FIG. 3 except that 100mM EGTA was used in obtaining the data depicted in FIGS. 6A and 6B, while the data depicted in FIG. 6C was obtained using 1 mM CaCl2. Measured R values were used to determine FFA and [FFAb]using equations (1) and (2). The solid curves through the data of FIGS. 6A and 6C represent best fits of equation (3) obtained using a non-linear least squares algorithm. Aggregate formation was detected by measuring 90° light scattering from FFA in the buffer of FIG. 3 containing no added calcium and titrated with the Na salts of the FFA as described above, see FIG. 6B. The smoothed curves through the data, intended to guide-the-eye, indicate that aggregate formation, as detected by a sharp increase in light scattering, is approximately coincident with the maximum R value observed in the experiment related to FIG. 6A. […]

[3] = Fluorescence response of fluorescent-FABP probes to fatty acid binding; type: biochemical
From the text: Principles and exemplary methods for constructing probes as described and defined herein and methods for determining FFA levels are described in detail below. Using these principles fourteen different fluorescent-FABP derivatives have been constructed. This has been done using 3 different native FABPs (rat intestine (I-FABP), human adipocyte (A-FABP), and human heart (H-FABP)) plus 4 site-specific mutants of two of these (I-FABP, (Thr83Cys83, Thr81Cys81, Lys27Cys27 and H-FABP, Thr27Lys27), and these proteins have been derivatized with 4 different fluorophores (acrylodan, danzyl aziridine, 4-[N-[(2-iodoacetoxy)ethyl]-N-methylamino]-7-nitrobenz-2-oxa1,3-diazole ester (IANBDE), 4-[N-[(2-iodoacetoxy)ethyl]-N-methylamino]-7-nitrobenz-2-oxa-1,3-diazole these derivatives can serve as FFA probes, to some degree. To date, however, ADIFAB remains the one that has optimal properties for current applications. Obviously, by occupying, partially, the binding site with a fluorophore, FA must compete for its site and therefore the FA binding constant for the FABP may be altered from the native protein. This is indeed the case for ADIFAB for which the Kd is about 10 fold greater than for the native protein. So long as FA can bind, however, the derivatized molecule can still function as a FFA probe and so long as the probe's dynamic range is sufficient (as it is for ADIFAB, IANBDE and IANBDA) then FFA levels over a wide range, including those that are physiologic, can be measured.
The Cys27 mutant of I-FABP (Lys27 to Cys27) with acrylodan, IANBDE and IANBDA have also been labeled using the technique described. […] This is the behavior predicted from the construction principles set forth herein, and reflects the shorter tethering arm to Cys27 as compared to Lys27 which prevents the deeper insertion into the binding site that is observed in the Lys27 derivative. […] Thus, those skilled in the art can with considerable confidence predict whether protein modifications and/or choice of label will result in a FFA responsive probe.
Site-directed mutagenesis was used to introduce a cysteine residue at positions 82 or 84, in place of the threonine residues that are normally at this position. Mutagenesis was carried out by annealing a synthetic prirner with a single mismatched base to the above derived expression vector. The primer was extended and ligated in vitro, and the resulting heteroduplex was used to transfect the host strain. The transfected host was screened for the mutated DNA by hybridization with the mutating oligonucleotide. Mutated plasmid DNA was isolated, retransformed into the host strain, and its structure confirmed by sequencing the recombinant DNA in regions defined by probes flanking the mutated region. This modified protein was expressed in the same system and purified by the same methods as for the native protein. Typical yields of purified protein were approximately 50 mg/liter cell culture. The mutated I-FABP protein was fluorescently derivatized by inserting a fluorescent group (which reacts specifically with free SH groups) at the newly created cysteine residue. The cysteine residue was inserted at positions 82 (replacing a threonine residue) and/or at residue 84 (also a threonine residue) since both these positions face outward from the FFA binding pocket but are in close proximity to the tryptophan at position 83 (about 3.5Å lateral separation along the b strand and about 10Å vertical separation between the centers of the tryptophan and fluorescent residues). […] Thus, either the direct emission of the fluorescent group and/or the rate of resonance energy transfer between Trp83 and the fluorescent group was postulated to change. In a non-limiting prior specific example, the dansyl derivative ACRYLODAN®(6-acryloly-2dimethylamenonaphthalene) was used to modify the mutated FABP and this probe was designated FAD508.
ADIFAB dose response to FFA and FFA aggregate formation was measured. […]

[4] = FA-ADIFAB Dissociation Constants, Kd, no added calcium, FIG. 6A, buffer A pH 7.4

CCCCC/C=C\C/C=C\C/C=C\C=C\[C@@H](O)CCCC(=O)O [5-HETE, (5S)-5-Hydroxy-6,8, 11,14-eicasatetaenoic acid]
change in ADIFAB fluorescence by the molecule itself [1]: none of these molecules, either themselves cause a change in ADIFAB fluorescence | displacement of oleic acid binding to ADIFAB [1]: nor do they displace oleic acid binding to ADIFAB

CCCCC/C=C\C/C=C\C/C=C\C/C=C\CCCC(=O)O [ARACHIDONATE, arachidonate]
Kd [2, 4]: 1.63 ± 0.03 µM | Kd ([2]; Kd in the presence of calcium, 1 mM calcium): 1.67 µM | Kd relative to oleate (fold greater than oleate) [2]: ~5.8 fold

CCCCC/C=C\C/C=C\CCCCCCCC(=O)O [LINOLEATE, linoleate]
Kd [2, 4]: 0.97 ± 0.02 µM | Kd relative to oleate (fold greater than oleate) [2]: ~3.5 fold

CC/C=C\C/C=C\C/C=C\CCCCCCCC(=O)O [LINOLENATE, linolenate]
ADIFAB sensitivity to FFA levels (lowest detectable level) [2]: about 20 nM | Kd [2, 4]: 2.5 ± 0.1 µM | Kd relative to oleate (fold greater than oleate) [2]: ~8.9 fold

C=CC1=C(C)/C(=C/c2[nH]c(Cc3[nH]c(/C=C4\NC(=O)C(C)=C4C=C)c(C)c3CCC(=O)O)c(CCC(=O)O)c2C)NC1=O [bilirubin]
change in ADIFAB fluorescence by the molecule itself [1]: none of these molecules, either themselves cause a change in ADIFAB fluorescence | displacement of oleic acid binding to ADIFAB [1]: nor do they displace oleic acid binding to ADIFAB

CCCCCCCCCCCC(=O)O [laurate]
Kd ([2]; laurate (12:0), binding detectable but considerably weaker, read-out: Kd (shorter chain FA, bound)): > 200 µM

CCCCC/C=C\C\C=C/C=C/C=C/[C@@H](SC[C@H](NC(=O)CC[C@H](N)C(=O)O)C(=O)NCC(=O)O)[C@@H](O)CCCC(=O)O [leukotriene C4]
change in ADIFAB fluorescence by the molecule itself [1]: none of these molecules, either themselves cause a change in ADIFAB fluorescence | displacement of oleic acid binding to ADIFAB [1]: nor do they displace oleic acid binding to ADIFAB

CCCCC[C@H](O)/C=C/[C@H]1C(=O)C[C@H](O)[C@@H]1C/C=C\CCCC(=O)O [prostaglandin D2]
change in ADIFAB fluorescence by the molecule itself [1]: none of these molecules, either themselves cause a change in ADIFAB fluorescence | displacement of oleic acid binding to ADIFAB [1]: nor do they displace oleic acid binding to ADIFAB

CCCCCCCCCCCCC/C=C/[C@@H](O)[C@@H](N)CO [sphingosine]
change in ADIFAB fluorescence by the molecule itself [1]: none of these molecules, either themselves cause a change in ADIFAB fluorescence | displacement of oleic acid binding to ADIFAB [1]: nor do they displace oleic acid binding to ADIFAB

lysolecithin
change in ADIFAB fluorescence by the molecule itself [1]: none of these molecules, either themselves cause a change in ADIFAB fluorescence | displacement of oleic acid binding to ADIFAB [1]: nor do they displace oleic acid binding to ADIFAB

B1: ADIFAB: Acrylodan derivatized recombinant native protein (I-FABP), labeled at Lys27 (conjugate, UniProt P02693 2-132, looked up)
Fatty acid-binding protein, …: AFDGTWKVDRNENYEKFMEKMGINVVKRKLGAHDNLKLTITQEGNKFTVKESSNFRNIDVVFELGVDFAYSLADGTELTGTWTMEGNKLVGKFKRVDNGKELIAVREISGNELIQTYTYEGVEAKRIFKKE
modifications: acrylodan label at Lys27
Kd of FA relative to the native protein (fold greater) ([3]; ADIFAB versus native I-FABP): about 10 fold | increase in the 505/432 emission ratio on addition of FFA ([3]; FIG. 6A, up to): ≤ 25 fold

B2: Lys27 on I-FABP with danzyl aziridine: Lys27 on I-FABP with danzyl aziridine has been derivatized (conjugate, UniProt P02693 2-132, looked up)
Fatty acid-binding protein, …: B1 Fatty acid-binding protein, …
modifications: dansyl aziridine label at Lys27
notes: Lys27 on I-FABP with danzyl aziridine has been derivatized
responsiveness of the probe to FA binding, in words [3]: exhibits an increase in 450 nm fluorescence upon FA binding

B3: IANBDE derivative: Cys27 mutant of I-FABP (Lys27 to Cys27) labeled with IANBDE (conjugate, UniProt P02693 2-132, looked up, variant K27C)
Fatty acid-binding protein, …: B1 Fatty acid-binding protein, … with K27C
modifications: IANBDE (NBD ester) label
responsiveness of the probe to FA binding, in words [3]: among the most sensitive | reduction in intensity at 550 nm ([3]; with 1 mM oleate, I-FABP Cys27 mutant): 60%

— patent publication US5470714A, “One-step free fatty acid determination method” (Lidak Pharmaceuticals, priority 1993, dated 1995)
